The results in this text go back to patent US20210024507A1, “Compounds” (Step Pharma S.A.S., priority 2018, published 2021).

Some results are limits rather than exact numbers.

One assay concerns the target T1, human CTPS1 (Homo sapiens, UniProt P17812).
T1 construct: purchased Proteros biostructures GmbH
T1 sequence (P17812 1-591): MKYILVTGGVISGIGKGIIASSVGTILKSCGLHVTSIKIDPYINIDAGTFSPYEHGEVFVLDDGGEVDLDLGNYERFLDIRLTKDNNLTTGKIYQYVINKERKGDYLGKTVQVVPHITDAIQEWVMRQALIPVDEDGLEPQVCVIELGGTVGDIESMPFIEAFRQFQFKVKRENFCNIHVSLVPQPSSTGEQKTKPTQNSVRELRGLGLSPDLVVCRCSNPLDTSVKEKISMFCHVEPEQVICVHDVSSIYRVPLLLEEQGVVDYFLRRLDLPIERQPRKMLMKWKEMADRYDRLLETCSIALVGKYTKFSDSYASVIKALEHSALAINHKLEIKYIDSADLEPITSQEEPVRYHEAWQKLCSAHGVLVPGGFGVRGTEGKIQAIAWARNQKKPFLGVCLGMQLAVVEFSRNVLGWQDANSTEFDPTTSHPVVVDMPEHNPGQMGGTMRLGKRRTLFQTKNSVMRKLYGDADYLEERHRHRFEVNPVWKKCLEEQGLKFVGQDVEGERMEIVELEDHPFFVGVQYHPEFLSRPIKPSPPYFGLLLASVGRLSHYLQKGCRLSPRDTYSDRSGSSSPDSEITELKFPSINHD
As to the kind of experiment: Human CTPS1 enzyme inhibition (ADP-Glo Max assay). The format is biochemical. The following applies: human full length CTPS1, 25° C., numeric value printed instead of class symbol, read-out: CTPS1 (Human CTPS1 Enzyme Inhibition, IC50). The protocol: The enzyme inhibitory activities of compounds invented against the target of interest were determined using the ADP-GIoTM Max assay (Promega, UK). Assays for human CTPS1 were performed in lx assay buffer containing 50mM Tris, 10mM MgCl2, 0.01% Tween-20, pH to 8.0 accordingly. Finally, immediately before use, L-cysteine was added to the lx assay buffer to a final concentration of 2mM. All reagents are from Sigma-Aldrich unless specified otherwise. Human full length active C-terminal FLAG-Hiss-tag CTPS1 (UniProtKB - P17812, CTPS[1-591]-[…]) was obtained from Proteros biostructures GmbH.
Assay Procedure 3× human CTPS1 protein was prepared in lx assay buffer to the final working protein concentration required for the reaction. A 2uL volume per well of 3x human CTPS1 protein was mixed with 2uL per well of 3× test compound (compound prepared in lx assay buffer to an appropriate final 3× compound concentration respective to the concentration response curve designed for the compounds under test) for 10 minutes at 25° C. The enzymatic reaction was then initiated by addition of a 2uL per well volume of a pre-mixed substrate mix (UltraPure ATP from ADP-GIo™ Max kit (0.31mM), GTP (0.034mM), UTP (0.48mM) and L-glutamine (0.186mM)) and the mixture was incubated for an appropriate amount of time within the determined linear phase of the reaction at 25° C. under sealed plate conditions with constant agitation at 500 revolutions per minute (rpm). ADP-GIo™ Max reagent was added for 60 minutes ([…] per well) and subsequently ADP-GIo™ Max development reagent was added for 60 minutes (12uL per well) prior to signal detection in a microplate reader (EnVision® Multilabel Reader, Perkin Elmer). Following each reagent addition over the course of the assay, assay plates were pulse centrifuged for 30 seconds at 500rpm.
In all cases, the enzyme converts ATP to ADP and the ADP-GIo™ Max reagent subsequently depletes any remaining endogenous ATP in the reaction system. The ADP-GIo™ Max detection reagent converts the ADP that has been enzymatically produced back into ATP and using ATP as a substrate together with luciferin for the enzyme luciferase, light is generated which produces a detectable luminescence. […] The percentage inhibition produced by each concentration of compound was calculated using the equation shown below: […]
Percentage inhibition was then plotted against compound concentration, and the 50% inhibitory concentration (IC50) was determined from the resultant concentration-response curve.
Background: ADP-Glo first removes unused ATP, then detects ADP through luciferase.
Turning to `CS(=O)(=O)Nc1cncc(CC(=O)Nc2ccc(-c3cccnc3)cc2)n1` [P194, 2-(6-(methylsulfonamido)pyrazin-2-yl)-N-(4-(pyridin-3-yl)phenyl)acetamide], the IC50 (as a rule, the concentration needed to halve the response being measured) is 58600 nM.

Still in this assay, the particulars now being: human full length CTPS1, 25° C., read-out: CTPS1 (Human CTPS1 Enzyme Inhibition, IC50 grouped by potency range).
Take `CCOc1cncc(-c2ccc(NC(=O)C(C)(CCOC)c3cncc(NS(C)(=O)=O)n3)nc2)n1` (stereo not shown) [P199, N-(5-(6-ethoxypyrazin-2-yl)pyridin-2-yl)-4-methoxy-2-methyl-2-(6-(methylsulfonamido)pyrazin-2-yl)butanamide]: the IC50 lay within 100 to 1000 nM.

For `CCC(C(=O)Nc1ccc(-c2cccnc2)cc1F)c1ccnc(NS(=O)(=O)C2CC2)n1` (stereo not shown) [P93, 2-(2-(cyclopropanesulfonamido)pyrimidin-4-yl)-N-(2-fluoro-4-(pyridin-3-yl)phenyl)butanamide], the IC50 is 1000 to 10000 nM.

For `CCC(NC(=O)c1ccc(-c2cncc(C(F)(F)F)c2)cc1)c1ccnc(NS(=O)(=O)C2CC2)n1` (stereo not shown) [P213, N-(1-(2-(cyclopropanesulfonamido)pyrimidin-4-yl)propyl)-4-(5-(trifluoromethyl)pyridin-3-yl)benzamide], the IC50 lay within 100 to 1000 nM.

As for `CCC(C(=O)Nc1ccc(-c2cnccn2)cc1)c1ccnc(NS(=O)(=O)C2CC2)n1` (stereo not shown) [P109, 2-(2-(cyclopropanesulfonamido)pyrimidin-4-yl)-N-(4-(pyrazin-2-yl)phenyl)butanamide], the IC50 lay in the range of 100 to 1000 nM.

Take `CCOc1cncc(-c2ccc(C(=O)NC(CC)c3cncc(NS(=O)(=O)C4CC4)n3)c(F)c2)n1` (single isomer, unassigned) [P224, N-(1-(6-(cyclopropanesulfonamido)pyrazin-2-yl)propyl)-4-(6-ethoxypyrazin-2-yl)-2-fluorobenzamide]: the IC50 fell in the range of 100 to 1000 nM.

For `CCC(C(=O)Nc1ccc(-c2cccnc2)cn1)c1ccnc(NS(=O)(=O)C2CC2)n1` (stereo not shown) [P86, N-([3,3′-bipyridin]-6-yl)-2-(2-(cyclopropanesulfonamido)pyrimidin-4-yl)butanamide], the IC50 lay in the range of 1000 to 10000 nM.

Consider `CCC(C(=O)Nc1ccc(-c2cncc(C(F)(F)F)c2)cc1)c1ccnc(NS(=O)(=O)C2CC2)n1` (stereo not shown) [P7, 2-(2-(Cyclopropanesulfonamido)pyrimidin-4-yl)-N-(4-(5-(trifluoromethyl)pyridin-3-yl)phenyl)butanamide], for which the 50% inhibitory concentration (IC50) fell in the range of 100 to 1000 nM.

As for `CCC(NC(=O)c1ccc(-c2cncc(C(F)(F)F)n2)cc1)c1ccnc(NS(=O)(=O)C2CC2)n1` (stereo not shown) [P217, N-(1-(2-(cyclopropanesulfonamido)pyrimidin-4-yl)propyl)-4-(6-(trifluoromethyl)pyrazin-2-yl)benzamide], the IC50 lay within 100 to 1000 nM.

On to `CCC(C(=O)Nc1ccc(-c2cncc(OC(C)C)n2)cc1)c1ccnc(NS(=O)(=O)C2CC2)n1` (stereo not shown) [P107, 2-(2-(cyclopropanesulfonamido)pyrimidin-4-yl)-N-(4-(6-isopropoxypyrazin-2-yl)phenyl)butanamide], for which the IC50 was at most 100 nM.

On to `CC(C(=O)Nc1ccc(-c2cccnc2)cc1)c1ccnc(NS(=O)(=O)C2CC2)n1` (stereo not shown) [P111, 2-(2-(cyclopropanesulfonamido)pyrimidin-4-yl)-N-(4-(pyridin-3-yl)phenyl)propanamide], for which the IC50 lay in the range of 100 to 1000 nM.

Consider `CCC(C(=O)Nc1ccc(-c2cnccn2)cc1F)c1ccnc(NS(=O)(=O)C2CC2)n1` (stereo not shown) [P6, 2-(2-(Cyclopropanesulfonamido)pyrimidin-4-yl)-N-(2-fluoro-4-(pyrazin-2-yl)phenyl)butanamide], for which the IC50 was in the range of 100 to 1000 nM.

Consider `CCC(NC(=O)c1ccc(-c2cncc(Cl)c2)cc1F)c1ccnc(NS(=O)(=O)C2CC2)n1` (stereo not shown) [P212, 4-(5-chloropyridin-3-yl)-N-(1-(2-(cyclopropanesulfonamido)pyrimidin-4-yl)propyl)-2-fluorobenzamide], for which the IC50 lay in the range of 100 to 1000 nM.

As to `CCOc1cncc(-c2ccc(NC(=O)C(OC)c3cncc(NS(=O)(=O)C4CC4)n3)nc2)n1` (stereo not shown) [P203, 2-(6-(cyclopropanesulfonamido)pyrazin-2-yl)-N-(5-(6-ethoxypyrazin-2-yl)pyridin-2-yl)-2-methoxyacetamide], the IC50 is at most 100 nM.

Take `CCC(NC(=O)c1ccc(-c2cncc(C(F)(F)F)c2)cc1F)c1ccnc(NS(=O)(=O)C2CC2)n1` (stereo not shown) [P211, N-(1-(2-(cyclopropanesulfonamido)pyrimidin-4-yl)propyl)-2-fluoro-4-(5-(trifluoromethyl)pyridin-3-yl)benzamide]: the IC50 was 100 to 1000 nM.

With `CCC(C(=O)Nc1ccc(-c2cncc(Cl)c2)cc1F)c1ccnc(NS(=O)(=O)C2CC2)n1` (stereo not shown) [P90, N-(4-(5-chloropyridin-3-yl)-2-fluorophenyl)-2-(2-(cyclopropanesulfonamido)pyrimidin-4-yl)butanamide], the IC50 is 100 to 1000 nM.

In the case of `CCOc1cncc(-c2ccc(C(=O)NC(CC)c3ccnc(NS(=O)(=O)C4CC4)n3)c(C(F)(F)F)c2)n1` (stereo not shown) [P215, N-(1-(2-(cyclopropanesulfonamido)pyrimidin-4-yl)propyl)-4-(6-ethoxypyrazin-2-yl)-2-(trifluoromethyl)benzamide], the IC50 is 100 to 1000 nM.

In the case of `CCC(C(=O)Nc1ccc(-c2cncc(C(F)(F)F)n2)cn1)c1cccc(NS(=O)(=O)C2CC2)n1` (stereo not shown) [P187, 2-(6-(cyclopropanesulfonamido)pyridin-2-yl)-N-(5-(6-(trifluoromethyl)pyrazin-2-yl)pyridin-2-yl)butanamide], the IC50 is 100 to 1000 nM.

As for `CCOc1cncc(-c2ccc(C(=O)NC(CC)c3ccnc(NS(=O)(=O)C4CC4)n3)cc2)n1` (stereo not shown) [P219, N-(1-(2-(cyclopropanesulfonamido)pyrimidin-4-yl)propyl)-4-(6-ethoxypyrazin-2-yl)benzamide], the IC50 is 100 to 1000 nM.

As to `CCOc1cncc(-c2ccc(NC(=O)C(C)(OC)c3cncc(NS(=O)(=O)C4CC4)n3)nc2)n1` (stereo not shown) [P205, 2-(6-(cyclopropanesulfonamido)pyrazin-2-yl)-N-(5-(6-ethoxypyrazin-2-yl)pyridin-2-yl)-2-methoxypropanamide], the IC50 is at most 100 nM.

In the case of `CCC(C(=O)Nc1ccc(-c2cncc(C(F)(F)F)n2)cc1F)c1ccnc(NS(=O)(=O)C2CC2)n1` (stereo not shown) [P94, 2-(2-(cyclopropanesulfonamido)pyrimidin-4-yl)-N-(2-fluoro-4-(6-(trifluoromethyl)pyrazin-2-yl)phenyl)butanamide], the IC50 is at most 100 nM.

For the compound `CCOc1cncc(-c2ccc(NC(=O)C(CC)c3cccc(NS(=O)(=O)C4CC4)n3)c(F)c2)n1` (stereo not shown) [P190, 2-(6-(cyclopropanesulfonamido)pyridin-2-yl)-N-(4-(6-ethoxypyrazin-2-yl)-2-fluorophenyl)butanamide], the IC50 lay within 100 to 1000 nM.

Consider `CCC(C(=O)Nc1ccc(-c2cncc(OC(C)C)c2)cc1)c1ccnc(NS(=O)(=O)C2CC2)n1` (stereo not shown) [P101, 2-(2-(cyclopropanesulfonamido)pyrimidin-4-yl)-N-(4-(5-isopropoxypyridin-3-yl)phenyl)butanamide], for which the IC50 was 100 to 1000 nM.

`CCC(C(=O)Nc1ccc(-c2cncc(Cl)n2)cc1)c1ccnc(NS(=O)(=O)C2CC2)n1` (stereo not shown) [P104, N-(4-(6-chloropyrazin-2-yl)phenyl)-2-(2-(cyclopropanesulfonamido)pyrimidin-4-yl)butanamide]: the IC50 fell in the range of 100 to 1000 nM.

Consider `CCC(NC(=O)c1ccc(-c2cncc(OC(C)C)n2)cc1)c1ccnc(NS(=O)(=O)C2CC2)n1` (stereo not shown) [P218, N-(1-(2-(cyclopropanesulfonamido)pyrimidin-4-yl)propyl)-4-(6-isopropoxypyrazin-2-yl)benzamide], for which the IC50 is at most 100 nM.
